Experimental data from ChEMBL document CHEMBL5653615 (J Biol Chem, 2013).

Legend:
[1] = biological target: Calcium/calmodulin-dependent protein kinase type II subunit beta (Homo sapiens) (UniProt Q13554); assay: Inhibition of human CAMK2b at 500 nM by HotSpot assay relative to control
[2] = biological target: T1, Tyrosine-protein kinase JAK3 (Homo sapiens) (UniProt P52333); assay: Inhibition of human JAK3 at 500 nM by HotSpot assay relative to control
T1 sequence (whole entry): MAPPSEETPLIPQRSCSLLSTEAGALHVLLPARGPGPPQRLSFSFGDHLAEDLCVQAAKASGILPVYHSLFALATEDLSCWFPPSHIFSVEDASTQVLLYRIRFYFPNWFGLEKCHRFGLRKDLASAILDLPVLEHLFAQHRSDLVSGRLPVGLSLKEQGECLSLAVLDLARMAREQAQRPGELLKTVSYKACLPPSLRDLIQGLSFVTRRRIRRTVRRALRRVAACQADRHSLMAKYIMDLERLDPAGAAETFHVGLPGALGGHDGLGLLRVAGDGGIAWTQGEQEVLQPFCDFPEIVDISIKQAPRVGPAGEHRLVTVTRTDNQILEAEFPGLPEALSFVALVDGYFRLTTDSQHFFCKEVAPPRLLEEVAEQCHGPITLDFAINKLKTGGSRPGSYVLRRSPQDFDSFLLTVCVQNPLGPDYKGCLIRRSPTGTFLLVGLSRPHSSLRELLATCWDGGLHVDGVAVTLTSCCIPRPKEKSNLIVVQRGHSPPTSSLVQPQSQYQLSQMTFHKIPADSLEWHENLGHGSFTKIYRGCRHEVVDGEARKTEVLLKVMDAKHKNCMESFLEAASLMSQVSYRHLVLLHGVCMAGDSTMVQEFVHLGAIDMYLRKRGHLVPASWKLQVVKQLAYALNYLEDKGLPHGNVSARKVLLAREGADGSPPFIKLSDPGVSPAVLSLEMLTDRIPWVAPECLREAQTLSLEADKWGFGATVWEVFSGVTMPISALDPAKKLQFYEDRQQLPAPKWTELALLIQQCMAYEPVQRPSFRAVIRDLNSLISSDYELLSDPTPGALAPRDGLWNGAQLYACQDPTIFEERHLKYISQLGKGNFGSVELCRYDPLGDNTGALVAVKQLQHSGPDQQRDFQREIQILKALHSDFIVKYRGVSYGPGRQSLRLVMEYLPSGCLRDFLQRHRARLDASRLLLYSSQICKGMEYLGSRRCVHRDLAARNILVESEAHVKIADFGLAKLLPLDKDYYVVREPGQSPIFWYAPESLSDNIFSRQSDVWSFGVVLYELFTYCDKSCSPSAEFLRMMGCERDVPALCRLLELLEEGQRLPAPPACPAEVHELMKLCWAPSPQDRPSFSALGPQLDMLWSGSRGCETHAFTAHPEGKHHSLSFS

[3] = biological target: Misshapen-like kinase 1 (Homo sapiens) (UniProt Q8N4C8); assay: Inhibition of human MINK1 at 500 nM by HotSpot assay relative to control
Sequence of Misshapen-like kinase 1 (Homo sapiens) (Q8N4C8 whole entry, looked up): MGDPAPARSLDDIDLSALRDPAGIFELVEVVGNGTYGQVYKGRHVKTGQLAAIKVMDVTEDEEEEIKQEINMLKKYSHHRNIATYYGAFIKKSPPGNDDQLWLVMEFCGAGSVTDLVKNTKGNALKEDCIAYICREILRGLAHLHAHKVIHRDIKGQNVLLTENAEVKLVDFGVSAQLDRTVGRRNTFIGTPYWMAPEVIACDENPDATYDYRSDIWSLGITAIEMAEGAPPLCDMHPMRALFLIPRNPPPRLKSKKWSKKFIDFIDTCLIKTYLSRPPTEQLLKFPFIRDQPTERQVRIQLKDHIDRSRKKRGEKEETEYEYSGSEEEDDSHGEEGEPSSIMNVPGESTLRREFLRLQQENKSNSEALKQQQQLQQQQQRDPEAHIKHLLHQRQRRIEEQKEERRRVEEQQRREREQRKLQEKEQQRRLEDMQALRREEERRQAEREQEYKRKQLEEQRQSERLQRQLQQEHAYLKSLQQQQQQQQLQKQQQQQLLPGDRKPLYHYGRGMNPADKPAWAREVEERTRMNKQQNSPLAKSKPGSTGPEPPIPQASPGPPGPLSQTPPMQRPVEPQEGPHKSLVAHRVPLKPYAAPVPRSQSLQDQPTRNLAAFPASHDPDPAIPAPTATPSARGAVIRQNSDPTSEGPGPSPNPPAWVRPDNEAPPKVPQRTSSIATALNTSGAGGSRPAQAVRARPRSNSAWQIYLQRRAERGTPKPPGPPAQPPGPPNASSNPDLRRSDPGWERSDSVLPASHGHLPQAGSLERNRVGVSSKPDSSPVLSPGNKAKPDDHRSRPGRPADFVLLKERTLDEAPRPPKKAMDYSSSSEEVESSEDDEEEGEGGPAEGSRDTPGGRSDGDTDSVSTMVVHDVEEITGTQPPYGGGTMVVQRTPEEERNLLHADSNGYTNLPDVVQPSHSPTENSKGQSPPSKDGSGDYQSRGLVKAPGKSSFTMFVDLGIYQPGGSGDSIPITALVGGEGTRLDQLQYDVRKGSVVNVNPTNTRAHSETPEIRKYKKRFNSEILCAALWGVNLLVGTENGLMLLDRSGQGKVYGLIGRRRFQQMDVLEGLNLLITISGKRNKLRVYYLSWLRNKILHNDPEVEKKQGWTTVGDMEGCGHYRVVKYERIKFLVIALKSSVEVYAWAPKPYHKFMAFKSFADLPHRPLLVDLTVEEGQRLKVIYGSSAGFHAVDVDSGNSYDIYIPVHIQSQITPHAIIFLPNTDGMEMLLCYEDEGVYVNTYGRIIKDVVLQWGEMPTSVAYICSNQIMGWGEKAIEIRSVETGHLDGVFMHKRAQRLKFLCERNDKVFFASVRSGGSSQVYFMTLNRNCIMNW

[4] = biological target: Dual specificity protein kinase CLK3 (Homo sapiens) (UniProt P49761); assay: Inhibition of human CLK3 at 500 nM by HotSpot assay relative to control
Sequence of Dual specificity protein kinase CLK3 (Homo sapiens) (P49761 whole entry, looked up): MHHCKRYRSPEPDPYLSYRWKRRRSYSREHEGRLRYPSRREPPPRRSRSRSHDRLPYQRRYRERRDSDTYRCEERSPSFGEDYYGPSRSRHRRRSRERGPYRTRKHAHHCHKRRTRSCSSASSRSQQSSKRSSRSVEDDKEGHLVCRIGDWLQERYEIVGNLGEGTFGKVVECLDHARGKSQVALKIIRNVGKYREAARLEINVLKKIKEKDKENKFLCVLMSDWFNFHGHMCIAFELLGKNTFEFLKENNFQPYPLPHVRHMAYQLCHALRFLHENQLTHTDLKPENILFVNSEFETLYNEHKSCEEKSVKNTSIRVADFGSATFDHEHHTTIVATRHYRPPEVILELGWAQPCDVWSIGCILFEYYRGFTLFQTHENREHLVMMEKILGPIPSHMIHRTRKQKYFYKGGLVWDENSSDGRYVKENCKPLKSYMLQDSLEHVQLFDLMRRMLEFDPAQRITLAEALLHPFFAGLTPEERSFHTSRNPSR

[5] = biological target: Mitogen-activated protein kinase 14 (Homo sapiens) (UniProt Q16539); assay: Inhibition of human MAPK14 at 500 nM by HotSpot assay relative to control
Sequence of Mitogen-activated protein kinase 14 (Homo sapiens) (Q16539 whole entry): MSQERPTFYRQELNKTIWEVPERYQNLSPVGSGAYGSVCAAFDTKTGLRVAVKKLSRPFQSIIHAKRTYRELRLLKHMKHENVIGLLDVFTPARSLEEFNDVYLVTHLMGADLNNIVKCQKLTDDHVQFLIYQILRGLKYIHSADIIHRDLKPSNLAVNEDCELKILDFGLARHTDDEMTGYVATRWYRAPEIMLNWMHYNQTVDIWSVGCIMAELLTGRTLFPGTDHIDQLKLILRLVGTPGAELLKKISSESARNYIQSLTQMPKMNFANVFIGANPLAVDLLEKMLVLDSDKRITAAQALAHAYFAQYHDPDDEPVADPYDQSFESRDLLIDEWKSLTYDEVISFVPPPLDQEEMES

[6] = biological target: Serine/threonine-protein kinase PAK 6 (Homo sapiens) (UniProt Q9NQU5); assay: Inhibition of human PAK6 at 500 nM by HotSpot assay relative to control
Sequence of Serine/threonine-protein kinase PAK 6 (Homo sapiens) (Q9NQU5 whole entry, looked up): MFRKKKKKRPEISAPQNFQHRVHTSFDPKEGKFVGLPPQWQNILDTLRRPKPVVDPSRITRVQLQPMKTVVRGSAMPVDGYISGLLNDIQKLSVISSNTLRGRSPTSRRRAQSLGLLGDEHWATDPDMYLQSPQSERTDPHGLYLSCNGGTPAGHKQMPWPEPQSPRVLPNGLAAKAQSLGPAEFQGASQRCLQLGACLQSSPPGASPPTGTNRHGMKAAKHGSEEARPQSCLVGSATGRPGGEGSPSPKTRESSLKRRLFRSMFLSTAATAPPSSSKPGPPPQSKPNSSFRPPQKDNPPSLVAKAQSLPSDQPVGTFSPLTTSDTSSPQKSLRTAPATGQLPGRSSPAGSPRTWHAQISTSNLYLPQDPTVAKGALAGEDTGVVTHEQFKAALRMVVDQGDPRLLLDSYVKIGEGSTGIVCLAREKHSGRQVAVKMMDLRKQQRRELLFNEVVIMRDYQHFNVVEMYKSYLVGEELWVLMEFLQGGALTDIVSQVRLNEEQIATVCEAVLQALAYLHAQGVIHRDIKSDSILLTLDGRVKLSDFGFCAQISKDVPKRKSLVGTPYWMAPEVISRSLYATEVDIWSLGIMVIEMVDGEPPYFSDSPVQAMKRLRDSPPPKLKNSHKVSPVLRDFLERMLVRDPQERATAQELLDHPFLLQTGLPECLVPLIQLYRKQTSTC

[7] = biological target: Dual specificity protein kinase CLK4 (Homo sapiens) (UniProt Q9HAZ1); assay: Inhibition of human CLK4 at 500 nM by HotSpot assay relative to control
Sequence of Dual specificity protein kinase CLK4 (Homo sapiens) (Q9HAZ1 whole entry, looked up): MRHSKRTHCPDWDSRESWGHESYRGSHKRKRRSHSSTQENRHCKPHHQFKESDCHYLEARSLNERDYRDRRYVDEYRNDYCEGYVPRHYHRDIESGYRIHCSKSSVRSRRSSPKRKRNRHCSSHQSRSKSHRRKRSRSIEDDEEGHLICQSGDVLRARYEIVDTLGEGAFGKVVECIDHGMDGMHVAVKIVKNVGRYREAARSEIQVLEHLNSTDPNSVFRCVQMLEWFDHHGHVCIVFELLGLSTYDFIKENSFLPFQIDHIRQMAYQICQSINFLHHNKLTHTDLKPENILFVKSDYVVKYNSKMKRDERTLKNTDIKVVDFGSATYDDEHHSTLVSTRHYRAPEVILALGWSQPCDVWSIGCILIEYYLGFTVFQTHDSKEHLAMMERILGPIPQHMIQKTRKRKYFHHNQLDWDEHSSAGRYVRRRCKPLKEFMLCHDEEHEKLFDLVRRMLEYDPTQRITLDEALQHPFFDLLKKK

[8] = biological target: Tyrosine-protein kinase Fgr (Homo sapiens) (UniProt P09769); assay: Inhibition of human FGR at 500 nM by HotSpot assay relative to control
Sequence of Tyrosine-protein kinase Fgr (Homo sapiens) (P09769 2-529 limits assumed): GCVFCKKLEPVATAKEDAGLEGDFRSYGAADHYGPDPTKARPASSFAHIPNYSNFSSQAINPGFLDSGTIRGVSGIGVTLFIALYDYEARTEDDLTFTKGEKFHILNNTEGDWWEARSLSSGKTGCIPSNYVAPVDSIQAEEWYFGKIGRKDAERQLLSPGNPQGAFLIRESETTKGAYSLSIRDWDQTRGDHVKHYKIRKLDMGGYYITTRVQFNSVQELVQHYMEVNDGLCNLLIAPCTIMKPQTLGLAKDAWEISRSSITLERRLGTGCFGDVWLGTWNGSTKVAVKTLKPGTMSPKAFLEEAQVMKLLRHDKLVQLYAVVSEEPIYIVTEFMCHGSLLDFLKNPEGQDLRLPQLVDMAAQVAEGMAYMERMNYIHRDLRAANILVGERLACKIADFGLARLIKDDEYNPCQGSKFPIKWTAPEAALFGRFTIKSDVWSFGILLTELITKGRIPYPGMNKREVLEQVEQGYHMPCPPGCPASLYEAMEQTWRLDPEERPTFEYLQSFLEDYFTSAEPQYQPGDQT

[9] = biological target: T2, Tyrosine-protein kinase ITK/TSK (Homo sapiens) (UniProt Q08881); assay: Inhibition of human ITK at 500 nM by HotSpot assay relative to control
T2 sequence (whole entry): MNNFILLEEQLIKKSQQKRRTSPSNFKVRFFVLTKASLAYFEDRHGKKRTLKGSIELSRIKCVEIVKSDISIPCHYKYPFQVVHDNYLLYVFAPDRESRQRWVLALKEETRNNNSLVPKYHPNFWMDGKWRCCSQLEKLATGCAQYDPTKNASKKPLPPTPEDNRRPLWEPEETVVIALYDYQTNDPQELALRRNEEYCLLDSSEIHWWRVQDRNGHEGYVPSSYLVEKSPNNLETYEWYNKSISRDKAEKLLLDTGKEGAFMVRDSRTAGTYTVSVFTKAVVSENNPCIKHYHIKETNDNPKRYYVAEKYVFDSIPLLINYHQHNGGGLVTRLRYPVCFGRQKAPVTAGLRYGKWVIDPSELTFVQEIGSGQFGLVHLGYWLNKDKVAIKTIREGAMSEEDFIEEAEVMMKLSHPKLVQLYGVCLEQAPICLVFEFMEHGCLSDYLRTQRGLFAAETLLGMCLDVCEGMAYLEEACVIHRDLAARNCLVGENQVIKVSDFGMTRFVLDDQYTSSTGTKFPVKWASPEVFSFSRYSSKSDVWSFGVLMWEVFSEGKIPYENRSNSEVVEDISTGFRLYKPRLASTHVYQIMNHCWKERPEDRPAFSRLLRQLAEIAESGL

Sequence of Calcium/calmodulin-dependent protein kinase type II subunit beta (Homo sapiens) (Q13554 whole entry): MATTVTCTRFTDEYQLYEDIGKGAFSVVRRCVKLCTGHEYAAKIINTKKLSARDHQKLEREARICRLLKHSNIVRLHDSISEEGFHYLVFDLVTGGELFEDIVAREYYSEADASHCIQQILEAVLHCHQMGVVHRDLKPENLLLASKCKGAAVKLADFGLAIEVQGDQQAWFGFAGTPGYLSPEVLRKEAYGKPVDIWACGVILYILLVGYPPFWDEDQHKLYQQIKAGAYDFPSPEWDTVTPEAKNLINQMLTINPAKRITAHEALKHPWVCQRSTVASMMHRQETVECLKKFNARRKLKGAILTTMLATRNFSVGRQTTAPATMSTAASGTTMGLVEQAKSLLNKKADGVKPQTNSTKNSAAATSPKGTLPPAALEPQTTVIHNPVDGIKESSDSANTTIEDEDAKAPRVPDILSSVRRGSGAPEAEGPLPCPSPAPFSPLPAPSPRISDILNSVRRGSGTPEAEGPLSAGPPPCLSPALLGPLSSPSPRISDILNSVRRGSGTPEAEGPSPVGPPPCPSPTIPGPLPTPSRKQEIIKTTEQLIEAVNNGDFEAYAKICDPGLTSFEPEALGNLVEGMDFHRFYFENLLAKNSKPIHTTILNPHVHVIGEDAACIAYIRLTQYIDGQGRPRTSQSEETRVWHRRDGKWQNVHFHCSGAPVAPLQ

Q: For `Nc1n[nH]c2nnc(-c3c(-c4ccccc4)nn4ccccc34)cc12`, which inhibition [1] is on record?
A: -2.4%

Q: And the inhibition [2]?
A: -4.59%

Q: What about the inhibition [3] of the same molecule?
A: 27.1%

Q: What about the inhibition [4] of the same molecule?
A: 5.1%

Q: What about the inhibition [5] of the same molecule?
A: 5.42%

Q: And the inhibition [6]?
A: 3.58%

Q: And the inhibition [7]?
A: 5.12%

Q: And the inhibition [8]?
A: 7.1%

Q: And the inhibition [9]?
A: 9.17%

Q: For `Oc1n[nH]c2nnc(-c3c(-c4ccccc4)nn4ccccc34)cc12`, which inhibition [1] is on record?
A: -1.77%

Q: And the inhibition [2]?
A: -3.22%

Q: What about the inhibition [3] of the same molecule?
A: 2.28%

Q: What about the inhibition [4] of the same molecule?
A: 1.04%

Q: And the inhibition [5]?
A: -1.15%

Q: And the inhibition [6]?
A: 1.63%

Q: And the inhibition [7]?
A: -0.68%

Q: What about the inhibition [8] of the same molecule?
A: -0.49%

Q: What about the inhibition [9] of the same molecule?
A: 6.55%
